Assay results reported in ChEMBL document CHEMBL3860091, “Synthesis and activity of newly designed aroxyalkyl or aroxyethoxyethyl derivatives of piperazine on the cardiovascular and the central nervous systems” (Bioorg Med Chem Lett, 2016).

Columns and labels:
Rattus norvegicus [1] = experiment: Hypotensive activity in normotensive anesthetized Wistar rat assessed as diastolic blood pressure at 1 mg/kg, iv measured 20 mins post dose (reference value: 81.6 to 115.2 mmHg); assay type: functional
Rattus norvegicus [2] = experiment: Hypotensive activity in normotensive anesthetized Wistar rat assessed as diastolic blood pressure at 1 mg/kg, iv measured 10 mins post dose (reference value: 81.6 to 115.2 mmHg); assay type: functional
Rattus norvegicus [3] = experiment: Hypotensive activity in normotensive anesthetized Wistar rat assessed as systolic blood pressure at 1 mg/kg, iv measured 60 mins post dose (reference value: 107.4 to 148.3 mmHg); assay type: functional
Rattus norvegicus [4] = experiment: Hypotensive activity in normotensive anesthetized Wistar rat assessed as systolic blood pressure at 1 mg/kg, iv measured 20 mins post dose (reference value: 107.4 to 148.3 mmHg); assay type: functional
[5] = target: T1, Adrenergic receptor alpha-1 (Rattus norvegicus, UniProt P15823+P23944+P43140); experiment: Displacement of [3H]prazosin from alpha1 adrenergic receptor in rat brain cerebral cortex after 30 mins by microbeta scintillation counting method; assay type: tissue-based
T1 sequence (P15823 whole entry): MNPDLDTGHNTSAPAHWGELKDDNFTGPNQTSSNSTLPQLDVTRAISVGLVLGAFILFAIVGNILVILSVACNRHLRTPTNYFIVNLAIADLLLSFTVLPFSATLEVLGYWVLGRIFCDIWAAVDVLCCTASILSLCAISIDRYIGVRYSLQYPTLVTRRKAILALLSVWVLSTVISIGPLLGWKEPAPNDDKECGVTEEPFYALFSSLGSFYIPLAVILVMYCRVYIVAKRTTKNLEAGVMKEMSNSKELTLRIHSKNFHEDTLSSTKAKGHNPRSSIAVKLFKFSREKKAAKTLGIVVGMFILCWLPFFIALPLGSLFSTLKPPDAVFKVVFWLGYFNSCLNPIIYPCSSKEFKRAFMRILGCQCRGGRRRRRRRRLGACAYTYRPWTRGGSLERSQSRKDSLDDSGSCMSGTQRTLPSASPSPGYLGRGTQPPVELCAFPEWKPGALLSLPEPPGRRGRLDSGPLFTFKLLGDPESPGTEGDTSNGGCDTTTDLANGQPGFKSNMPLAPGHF
T1 sequence (P23944 whole entry): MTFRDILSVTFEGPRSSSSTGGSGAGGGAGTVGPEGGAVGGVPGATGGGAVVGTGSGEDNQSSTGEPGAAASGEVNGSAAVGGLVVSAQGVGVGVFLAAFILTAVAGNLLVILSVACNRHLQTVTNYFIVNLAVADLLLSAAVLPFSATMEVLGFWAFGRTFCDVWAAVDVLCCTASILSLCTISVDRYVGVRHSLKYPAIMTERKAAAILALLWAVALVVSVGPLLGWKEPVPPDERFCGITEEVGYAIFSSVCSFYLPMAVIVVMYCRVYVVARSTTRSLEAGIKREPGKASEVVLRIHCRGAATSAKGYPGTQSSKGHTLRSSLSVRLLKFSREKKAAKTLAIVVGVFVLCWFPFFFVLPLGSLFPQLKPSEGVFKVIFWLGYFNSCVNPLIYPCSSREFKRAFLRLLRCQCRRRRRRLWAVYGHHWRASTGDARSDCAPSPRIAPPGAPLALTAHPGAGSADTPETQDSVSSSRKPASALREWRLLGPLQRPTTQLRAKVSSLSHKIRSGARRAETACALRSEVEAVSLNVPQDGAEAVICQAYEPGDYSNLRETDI
T1 sequence (P43140 whole entry): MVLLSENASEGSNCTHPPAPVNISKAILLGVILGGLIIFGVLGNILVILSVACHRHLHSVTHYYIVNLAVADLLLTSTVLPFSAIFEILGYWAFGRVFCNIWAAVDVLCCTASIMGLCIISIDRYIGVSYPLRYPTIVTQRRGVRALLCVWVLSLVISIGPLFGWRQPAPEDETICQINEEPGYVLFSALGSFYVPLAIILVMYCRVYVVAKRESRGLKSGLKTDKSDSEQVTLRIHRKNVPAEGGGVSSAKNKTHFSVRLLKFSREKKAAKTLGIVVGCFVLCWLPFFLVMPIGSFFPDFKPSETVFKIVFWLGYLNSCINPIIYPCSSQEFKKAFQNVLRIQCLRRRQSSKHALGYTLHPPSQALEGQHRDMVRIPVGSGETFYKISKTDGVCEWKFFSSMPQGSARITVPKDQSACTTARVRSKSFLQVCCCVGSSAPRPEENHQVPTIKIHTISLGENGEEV

Mus musculus = experiment: Toxicity in albino Swiss (CD-1) mouse assessed as effect on spontaneous locomotor activity by measuring number of crossings at 5 mg/kg, ip administered 30 mins prior to test measured for last 4 mins of 6 mins observation (reference value: 191.5 to 225.4); assay type: organism-based; settings: in vivo
Rattus norvegicus [6] = experiment: Hypotensive activity in normotensive anesthetized Wistar rat assessed as systolic blood pressure at 0.5 mg/kg, iv measured 60 mins post dose (reference value: 107.4 to 148.3 mmHg); assay type: functional
Rattus norvegicus [7] = experiment: Hypotensive activity in normotensive anesthetized Wistar rat assessed as diastolic blood pressure at 0.5 mg/kg, iv measured 5 mins post dose (reference value: 81.6 to 115.2 mmHg); assay type: functional
Rattus norvegicus [8] = experiment: Hypotensive activity in normotensive anesthetized Wistar rat assessed as systolic blood pressure at 0.5 mg/kg, iv measured 30 mins post dose (reference value: 107.4 to 148.3 mmHg); assay type: functional
Rattus norvegicus [9] = experiment: Hypotensive activity in normotensive anesthetized Wistar rat assessed as diastolic blood pressure at 0.5 mg/kg, iv measured 60 mins post dose (reference value: 81.6 to 115.2 mmHg); assay type: functional
Rattus norvegicus [10] = experiment: Hypotensive activity in normotensive anesthetized Wistar rat assessed as systolic blood pressure at 0.5 mg/kg, iv measured 10 mins post dose (reference value: 107.4 to 148.3 mmHg); assay type: functional
Rattus norvegicus [11] = experiment: Hypotensive activity in normotensive anesthetized Wistar rat assessed as systolic blood pressure at 0.5 mg/kg, iv measured 20 mins post dose (reference value: 107.4 to 148.3 mmHg); assay type: functional
Rattus norvegicus [12] = experiment: Hypotensive activity in normotensive anesthetized Wistar rat assessed as diastolic blood pressure at 0.5 mg/kg, iv measured 10 mins post dose (reference value: 81.6 to 115.2 mmHg); assay type: functional
Rattus norvegicus [13] = experiment: Hypotensive activity in normotensive anesthetized Wistar rat assessed as systolic blood pressure at 0.5 mg/kg, iv measured 5 mins post dose (reference value: 107.4 to 148.3 mmHg); assay type: functional
Rattus norvegicus [14] = experiment: Hypotensive activity in normotensive anesthetized Wistar rat assessed as diastolic blood pressure at 0.5 mg/kg, iv measured 30 mins post dose (reference value: 81.6 to 115.2 mmHg); assay type: functional
Rattus norvegicus [15] = experiment: Hypotensive activity in normotensive anesthetized Wistar rat assessed as diastolic blood pressure at 0.5 mg/kg, iv measured 20 mins post dose (reference value: 81.6 to 115.2 mmHg); assay type: functional
[16] = Antidepressant-like activity in albino Swiss (CD-1) mouse assessed as immobility time at 5 mg/kg, ip administered 30 mins prior to test measured for last 4 mins of 6 mins observation by forced swim test (reference value: 178.3 +/- 12.3 sec); assay type: functional, organism-based

Cc1cccc(OCCCN2CCN(c3ccccc3)CC2)c1C.Cl.Cl
Activity (Rattus norvegicus [1]): 110.8 mmHg
Activity (Rattus norvegicus [2]): 112.8 mmHg
Activity (Rattus norvegicus [3]): 133.3 mmHg
Activity (Rattus norvegicus [4]): 138 mmHg
Ki [5]: 33 nM

Cc1cccc(OCCN2CCN(c3ccccc3)CC2)c1C.Cl.Cl
Activity (Rattus norvegicus [1]): 71.8 mmHg
Activity (Rattus norvegicus [2]): 75 mmHg
Activity (Rattus norvegicus [3]): 93.4 mmHg
Activity (Rattus norvegicus [4]): 96 mmHg
Ki [5]: 159 nM

Cc1cccc(Cl)c1OCCCCN1CCN(c2ccccc2)CC1.Cl.Cl
Activity (Mus musculus): 152.4
Activity (Rattus norvegicus [6]): 130.8 mmHg
Activity (Rattus norvegicus [7]): 100.5 mmHg
Activity (Rattus norvegicus [8]): 131.5 mmHg
Activity (Rattus norvegicus [1]): 98.8 mmHg
Activity (Rattus norvegicus [9]): 97 mmHg
Activity (Rattus norvegicus [10]): 135.3 mmHg
Activity (Rattus norvegicus [2]): 102.2 mmHg
Activity (Rattus norvegicus [11]): 138 mmHg
Activity (Rattus norvegicus [12]): 101 mmHg
Activity (Rattus norvegicus [13]): 135 mmHg
Activity (Rattus norvegicus [3]): 120 mmHg
Activity (Rattus norvegicus [14]): 101.5 mmHg
Activity (Rattus norvegicus [15]): 102.5 mmHg
Activity (Rattus norvegicus [4]): 126.2 mmHg
TIME [16]: 0.0416 h
Ki [5]: 59.6 nM

COc1ccccc1N1CCN(CCCCOc2c(C)cccc2C)CC1.Cl
Activity (Rattus norvegicus [6]): 115.3 mmHg
Activity (Rattus norvegicus [7]): 102 mmHg
Activity (Rattus norvegicus [8]): 119.3 mmHg
Activity (Rattus norvegicus [1]): 103 mmHg
Activity (Rattus norvegicus [9]): 94.3 mmHg
Activity (Rattus norvegicus [10]): 122.7 mmHg
Activity (Rattus norvegicus [2]): 105.2 mmHg
Activity (Rattus norvegicus [11]): 121.7 mmHg
Activity (Rattus norvegicus [12]): 100.8 mmHg
Activity (Rattus norvegicus [13]): 124.2 mmHg
Activity (Rattus norvegicus [3]): 124.7 mmHg
Activity (Rattus norvegicus [14]): 98.8 mmHg
Activity (Rattus norvegicus [15]): 99.8 mmHg
Activity (Rattus norvegicus [4]): 124.3 mmHg
Ki [5]: 23.5 nM

COc1ccccc1N1CCN(CCOCCOc2cccc(C)c2C)CC1.Cl.Cl
Activity (Mus musculus): 232.5
Activity (Rattus norvegicus [1]): 105.4 mmHg
Activity (Rattus norvegicus [2]): 106 mmHg
Activity (Rattus norvegicus [3]): 132.6 mmHg
Activity (Rattus norvegicus [4]): 130.4 mmHg
TIME [16]: 0.0339 h
Ki [5]: 28.5 nM
